# Data: patent US20210137854A1, “TAAR Receptor Agonists for the Treatment of Alopecia” (APPLIED BIOLOGY, INC., priority 2018, published 2021)
# What was measured:
# Type in all cases: in vivo, human
# [1] = Cardiac or hemodynamic changes during topical α1-AR agonist studies; details: subjects sampled during both studies
# From the text: It is recognized that […] of the α1 adrenergic receptor (α1-AR), a G-protein coupled receptor, expressed on the arrector pili muscle.
# scalp hair follicles [2] = test: Epilation force threshold for plucking scalp hair (trichotillometer)
# Protocol: To evaluate the effect of a topically applied TAAR agonist combination on the force required to pluck hairs from the scalp, a hand-held spring dynamometer, or “trichotillometer” was used. The trichotillometer records the maximum force threshold, in grams, required to pluck a single hair from the scalp; the performance and statistical variance of the instrument have been reported previously. […] The frontal area of scalp was divided into two 8×10 cm^2 areas. On the right side 0.5 mL of a placebo vehicle was applied. On the left side, 0.5 mL a 12% tyramine solution was applied. After 45 minutes, ten hairs were plucked from each of the target areas with the trichotillometer.
# scalp hair follicles [3] = test: Hair shedding during brushing after topical solution versus placebo
# From the text: Participants included in the study were female subjects between ages of 18 and 60 who frequently use traumatic hair care practices, such as tight braids, head scarves, ponytails, extensions, hair rollers, hair weaves and heated styling appliances such as blow dryers, flat irons, heat setters and curling irons. Excluded subjects were those who experienced uncontrolled hypertension, those who were pregnant or breastfeeding, those who were diagnosed with pattern hair loss, or those who experienced other hair loss in conjunction with female pattern hair loss. Overall, fifteen female subjects, aged 24 to 40 years, participated in the study.
# On day 1, subjects were instructed to wash their hair. On day 2, subjects were instructed to apply 1 mL of placebo solution containing vehicle and brush targeted area after 30 minutes. Brushing was conducted to frontal hair with regular brush in size of 8×10 cm^2. On day 3, subjects were instructed again to wash their hair. On day 4, subjects were instructed to apply 1 mL of 10% m-octopamine hydrochloride solution on targeted area and brush after 30 minutes.
# The study was conducted over 4 days. On day 1, subjects were instructed to wash their hair. […]
# Hair Shedding: To measure hair loss during cosmetic procedures, a 4-day protocol was designed. […] After each clinical procedure, the investigator counted the hairs collected on each brush. […]
compound,measurement,setting,value
CNC[C@H](O)c1cccc(O)c1 [phenylephrine],cardiac or hemodynamic changes,[1],no cardiac or hemodynamic changes were observed
same,increase in epilatory force threshold for plucking hair follicles,"scalp hair follicles [2]; following topical application, Examples 5 and 6, FIGS. 4-5",172%
same,increase in average threshold of force required to pluck hair,scalp hair follicles [2]; pilot study of 15 female subjects,172%
same,subjects with reduced shedding compared to days using placebo solution,"scalp hair follicles [3]; Examples 7 and 9, blinded study, female subjects ages 18-40",80%
same,reduction in hairs lost (shedding) during brushing,"scalp hair follicles [3]; earlier studies of the inventors, phenylephrine 15 female subjects, AB-102 cohort of 40 women",40%
